# Data taken from US20250195510A1, “NOVEL METHODS” (priority 2022, published 2025).
# Experiments:
# [1] = tested on: hippocampal gene expression (NanoString gene sets); test: NanoString nCounter hippocampal gene expression after coinjection of LPS and lumateperone; assay type: in vivo, mouse
# Excerpt: NanoString. The mouse neuropathology panel includes 770 genes associated with themes of neurotransmission, neuron-glia interaction, neuroplasticity, cell structure integrity, neuroinflammation and metabolism. A total of 13 housekeeping genes are used for expression normalization (Aars: NM_146217.4, Asb10: NM_080444.4, Ccdc127: NM_024201.3, Cnot10: NM_153585.5, Csnk2a2: NM_009974.3, Fam104a: NM_138598.5, Gusb: NM_010368.1, Lars: NM_134137.2, Mtol: NM_026658.2, Supt7l: NM_028150.1, Tada2b: NM_001170454.1:3224, Tbp: NM_013684.3:70, and Xpnpepl: NM_133216.3:1826, see FIG. 1-1). Hippocampal RNA is extracted using the Qiagen microkit (Qiagen) and is evaluated by the Agilent 2100 Bioanalyzer (Agilent Technologies, Santa Clara, CA) to assess RNA concentration, quality, and integrity. Sample preparation, hybridization, and detection (100 ng per sample, n=5-6 per group) are carried out according to NanoString manufacturer's instructions (NanoString Technologies, Seattle, WA). The normalized data are transformed to log 2 score to express the fold change. NanoString results (raw and normalized counts) are derived from RCC files using the nSolver software (version 2.6; NanoString Technologies). A complementary gene software analysis tool, ROSALIND® Advanced Analysis Software (NanoString Technologies), is also used, which provides comprehensive free cloud-based data analysis for nCounter data by directly analyzing raw RCC files generated from NanoString. Data are imported into ROSALIND® Advanced Analysis Software for normalization, calculation of fold-changes, P values, identification of enriched pathways, and heatmaps.
# The NanoString platform has been effectively used to quantitatively measure in vivo gene expression of target genes in several neuropathological mouse models.
# It is calculated similarly to a unidirected global significance score, but it takes into account the sign of the t-statistic. Scores were calculated by nSolver software, using the control group as a reference.
# Next, using ROSALIND® Advanced Analysis Software and a filter set to P<.
# [2] = tested on: Sprague-Dawley rats; test: Novelty Induced Hypophagia (NIH); assay type: in vivo, rat; conditions: naïve rats, Luma 1 mg/kg IP days 1 and 3; control 65.4
# Experimental: Behavioral Evaluation. All behavioral tests are performed in the morning with adult male Sprague-Dawley rats (n=9-11 per group for the experiments with LPS, and n=13-14 per group for the naïve rats).
# Novelty Induced Hypophagia (NIH). This conflict-based behavioral task assesses the impact of environmental stressors on conditioned approach response for a palatable food reward (Ramaker and Dulawa, 2017). Rats are habituated with diluted (1:3 milk/water) sweetened condensed milk which is accessible in their home cage for 1 hour each day for 3 consecutive days. Initially, animals are tested in their home cage under normal lighting. For testing after drug treatment, the latency to drink is recorded after rats are placed in a novel clean cage of the same dimensions with no bedding and under dim lighting (˜50 lux) with white paper under the cages to enhance aversion.
# Basal levels of anxiety are also tested using 2 commonly used tests, NSFT and novelty induced hypophagia (NIH), in the absence of LPS. It is well documented that rodents experience increased stress levels when placed in a novel environment (Ramaker and Dulawa, 2017). These two tests exploit this feature by measuring latency to feed in food-deprived rats (NSFT), or latency to receive a reward to which they have been habituated prior to the test (NIH).
# [3] = Inflammation gene, LPS 500 μg/kg + Luma 3 mg/kg, 2 h
# [4] = Microglia gene, LPS 500 μg/kg + Luma 3 mg/kg, 2 h
# [5] = Neuroprotect gene, LPS 500 μg/kg + Luma 3 mg/kg, 2 h
structure (smiles),measurement,setting,value
"CN1CCN2c3c(cccc31)[C@@H]1CN(CCCC(=O)c3ccc(F)cc3)CC[C@@H]12 [Lumateperone, 4-((6bR,10aS)-3-methyl-2,3,6b,9,10,10a-hexahydro-1H-pyrido[3′,4′: 4,5]pyrrolo[1,2,3-de]quinoxaline-8 (7H)-yl)-1-(4-fluorophenyl)-1-butanone]","Casp4 hippocampal expression, Log2, LPS + Luma vs LPS",[1]; [3],−2.24
same,"Ccr2 hippocampal expression, Log2, LPS + Luma vs LPS",[1]; [3],−1.71
same,"Ikbkb hippocampal expression, Log2, LPS + Luma vs LPS",[1]; [3],−0.132
same,"Il1b hippocampal expression, Log2, LPS + Luma vs LPS",[1]; [3],−1.42
same,"Il1r1 hippocampal expression, Log2, LPS + Luma vs LPS",[1]; [3],−0.309
same,"Lrg1 hippocampal expression, Log2, LPS + Luma vs LPS",[1]; [3],−1.67
same,"Ly6a hippocampal expression, Log2, LPS + Luma vs LPS",[1]; [3],−0.925
same,"Myd88 hippocampal expression, Log2, LPS + Luma vs LPS",[1]; [3],−0.433
same,"Nfkb2 hippocampal expression, Log2, LPS + Luma vs LPS",[1]; [3],−0.972
same,"Osmr hippocampal expression, Log2, LPS + Luma vs LPS",[1]; [3],−1.21
same,"Socs3 hippocampal expression, Log2, LPS + Luma vs LPS",[1]; [3],−1.57
same,"Tnfrsf1a hippocampal expression, Log2, LPS + Luma vs LPS",[1]; [3],−0.434
same,"Tnfrsf1b hippocampal expression, Log2, LPS + Luma vs LPS",[1]; [3],−0.31
same,"Directed global significance score vs control group, gene set Oligodendrocyte function","[1]; LPS 500 μg/kg + Luma 3 mg/kg coinjected, 2 h, LPS alone 0.181",0.48
same,"Directed global significance score vs control group, gene set Insulin signaling","[1]; LPS 500 μg/kg + Luma 3 mg/kg coinjected, 2 h, LPS alone 0.28",0.809
same,"Directed global significance score vs control group, gene set Epigenetic regulation","[1]; LPS 500 μg/kg + Luma 3 mg/kg coinjected, 2 h, LPS alone 0.312",0.892
same,"Directed global significance score vs control group, gene set Microglia function","[1]; LPS 500 μg/kg + Luma 3 mg/kg coinjected, 2 h, LPS alone 0.377",0.915
same,"Directed global significance score vs control group, gene set Cellular stress","[1]; LPS 500 μg/kg + Luma 3 mg/kg coinjected, 2 h, LPS alone 0.499",0.813
same,"Directed global significance score vs control group, gene set Carbohydrate metabolism","[1]; LPS 500 μg/kg + Luma 3 mg/kg coinjected, 2 h, LPS alone 0.507",0.668
same,"Directed global significance score vs control group, gene set Adaptive immune response","[1]; LPS 500 μg/kg + Luma 3 mg/kg coinjected, 2 h, LPS alone 0.571",0.938
same,"Directed global significance score vs control group, gene set DNA damage","[1]; LPS 500 μg/kg + Luma 3 mg/kg coinjected, 2 h, LPS alone 0.578",0.042
same,"Directed global significance score vs control group, gene set Autophagy","[1]; LPS 500 μg/kg + Luma 3 mg/kg coinjected, 2 h, LPS alone 0.588",0.548
same,"Directed global significance score vs control group, gene set Growth factor signaling","[1]; LPS 500 μg/kg + Luma 3 mg/kg coinjected, 2 h, LPS alone 0.76",0.698
same,"Directed global significance score vs control group, gene set Notch","[1]; LPS 500 μg/kg + Luma 3 mg/kg coinjected, 2 h, LPS alone 0.876",1.05
same,"Directed global significance score vs control group, gene set Apoptosis","[1]; LPS 500 μg/kg + Luma 3 mg/kg coinjected, 2 h, LPS alone 0.915",−0.453
same,"Directed global significance score vs control group, gene set Innate immune response","[1]; LPS 500 μg/kg + Luma 3 mg/kg coinjected, 2 h, LPS alone 0.939",−0.655
same,"Directed global significance score vs control group, gene set Cytokine signaling","[1]; LPS 500 μg/kg + Luma 3 mg/kg coinjected, 2 h, LPS alone 0.993",−0.599
same,"Directed global significance score vs control group, gene set Inflammatory signaling","[1]; LPS 500 μg/kg + Luma 3 mg/kg coinjected, 2 h, LPS alone 1.086",−0.93
same,"Directed global significance score vs control group, gene set NF-kB","[1]; LPS 500 μg/kg + Luma 3 mg/kg coinjected, 2 h, LPS alone 1.215",−0.689
same,"Directed global significance score vs control group, gene set Astrocyte function","[1]; LPS 500 μg/kg + Luma 3 mg/kg coinjected, 2 h, LPS alone 1.391",−0.308
same,"Directed global significance score vs control group, gene set Angiogenesis","[1]; LPS 500 μg/kg + Luma 3 mg/kg coinjected, 2 h, LPS alone −0.144",0.891
same,"Directed global significance score vs control group, gene set Cell cycle","[1]; LPS 500 μg/kg + Luma 3 mg/kg coinjected, 2 h, LPS alone −0.148",0.385
same,"Directed global significance score vs control group, gene set Lipid metabolism","[1]; LPS 500 μg/kg + Luma 3 mg/kg coinjected, 2 h, LPS alone −0.192",0.89
same,"Directed global significance score vs control group, gene set Neurons and neurotransmission","[1]; LPS 500 μg/kg + Luma 3 mg/kg coinjected, 2 h, LPS alone −0.422",0.979
same,"Directed global significance score vs control group, gene set Wnt","[1]; LPS 500 μg/kg + Luma 3 mg/kg coinjected, 2 h, LPS alone −0.476",1.186
same,"Directed global significance score vs control group, gene set Matrix remodeling","[1]; LPS 500 μg/kg + Luma 3 mg/kg coinjected, 2 h, LPS alone −0.583",0.447
same,"genes that promote inflammation (e.g., Osmr, Tnfrsf1a, Tnfrsf11b, Prl, Il1r1), ROSALIND analysis","[1]; LPS+Luma versus LPS alone, filter P<.04999",significantly downregulates
same,"Directed global significance score vs control group, gene set Adaptive immune response",[1]; Luma alone,0.344
same,"Directed global significance score vs control group, gene set Angiogenesis",[1]; Luma alone,0.616
same,"Directed global significance score vs control group, gene set Apoptosis",[1]; Luma alone,−0.442
same,"Directed global significance score vs control group, gene set Astrocyte function",[1]; Luma alone,−0.837
same,"Directed global significance score vs control group, gene set Autophagy",[1]; Luma alone,−0.731
same,"Directed global significance score vs control group, gene set Carbohydrate metabolism",[1]; Luma alone,−0.837
same,"Directed global significance score vs control group, gene set Cell cycle",[1]; Luma alone,−0.75
same,"Directed global significance score vs control group, gene set Cellular stress",[1]; Luma alone,−0.432
same,"Directed global significance score vs control group, gene set Cytokine signaling",[1]; Luma alone,−0.543
same,"Directed global significance score vs control group, gene set DNA damage",[1]; Luma alone,−0.614
same,"Directed global significance score vs control group, gene set Epigenetic regulation",[1]; Luma alone,0.729
same,"Directed global significance score vs control group, gene set Growth factor signaling",[1]; Luma alone,0.226
same,"Directed global significance score vs control group, gene set Inflammatory signaling",[1]; Luma alone,−1.032
same,"Directed global significance score vs control group, gene set Innate immune response",[1]; Luma alone,−0.611
same,"Directed global significance score vs control group, gene set Insulin signaling",[1]; Luma alone,0.858
same,"Directed global significance score vs control group, gene set Lipid metabolism",[1]; Luma alone,−0.818
same,"Directed global significance score vs control group, gene set Matrix remodeling",[1]; Luma alone,−0.4
same,"Directed global significance score vs control group, gene set Microglia function",[1]; Luma alone,0.466
same,"Directed global significance score vs control group, gene set NF-kB",[1]; Luma alone,−0.499
same,"Directed global significance score vs control group, gene set Neurons and neurotransmission",[1]; Luma alone,0.435
same,"Directed global significance score vs control group, gene set Notch",[1]; Luma alone,0.834
same,"Directed global significance score vs control group, gene set Oligodendrocyte function",[1]; Luma alone,−1.176
same,"Directed global significance score vs control group, gene set Wnt",[1]; Luma alone,0.9
same,"Cd36 hippocampal expression, Log2, LPS + Luma vs LPS",[1]; [4],0.332
same,"Cx3cr1 hippocampal expression, Log2, LPS + Luma vs LPS",[1]; [4],0.231
same,"Maff hippocampal expression, Log2, LPS + Luma vs LPS",[1]; [4],1.21
same,"P2ry12 hippocampal expression, Log2, LPS + Luma vs LPS",[1]; [4],0.14
same,"Ptgs2 hippocampal expression, Log2, LPS + Luma vs LPS",[1]; [4],−0.358
same,"Tmem100 hippocampal expression, Log2, LPS + Luma vs LPS",[1]; [4],0.186
same,"Tmem144 hippocampal expression, Log2, LPS + Luma vs LPS",[1]; [4],0.227
same,"Cldn5 hippocampal expression, Log2, LPS + Luma vs LPS",[1]; [5],0.812
same,"Egr1 hippocampal expression, Log2, LPS + Luma vs LPS",[1]; [5],0.87
same,"Fos hippocampal expression, Log2, LPS + Luma vs LPS",[1]; [5],2.27
same,"Ngf hippocampal expression, Log2, LPS + Luma vs LPS",[1]; [5],0.126
same,"Vegfa hippocampal expression, Log2, LPS + Luma vs LPS",[1]; [5],0.227
same,NIH - novel cage latency to drink,[2],30.5 s
